In patent US12180226B2, “Spirotricycle RIPK1 inhibitors and methods of uses thereof” (Merck Sharp & Dohme LLC, priority 2021, dated 2024):
Where a name gives a salt, the structure may show the parent alone.

Biological target: RIPK1 (recombinant GST-RIPK1 kinase domain, residues 1-327) (Homo sapiens (Human), UniProt Q13546)
Assay: RIPK1-ADP-Glo Enzymatic Assay
Format: biochemical
Conditions: ADP-Glo; 25 nM GST-RIPK1, 300 μM ATP; assay lower limit ~25 nM; read-out: RIPK1 V0 Ec50
Procedure, shortened: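 GST-tagged kinase domain (residues 1-327, Sf21-expressed), 25 nM, pre-incubated 30 min with compound at ambient temperature, then reacted 150 min with 300 μM ATP and 3 μM dephosphorylated MBP in HEPES pH 7.3 buffer. ADP measured by ADP-Glo luminescence; EC50 from ten-point titration (top 100000 nM), four-parameter fit.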

RIPK1 (recombinant GST-RIPK1 kinase domain, residues 1-327), sequence (Q13546 1-327): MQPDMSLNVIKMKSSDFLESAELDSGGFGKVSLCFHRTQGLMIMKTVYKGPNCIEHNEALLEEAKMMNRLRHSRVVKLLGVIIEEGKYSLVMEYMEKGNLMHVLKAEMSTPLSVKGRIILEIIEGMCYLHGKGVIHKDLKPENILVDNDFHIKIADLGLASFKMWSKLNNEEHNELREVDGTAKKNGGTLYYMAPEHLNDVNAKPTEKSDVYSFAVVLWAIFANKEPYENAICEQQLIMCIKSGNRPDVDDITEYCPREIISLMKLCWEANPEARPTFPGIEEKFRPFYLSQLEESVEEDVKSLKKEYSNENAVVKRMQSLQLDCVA

Structure (SMILES)	EC50 [nM]
O=C1N2[C@H](OC13CCN(c1ccnc4c(F)cnn14)CC3)[C@H](O)C[C@H]2c1ccccc1 [Example 4.149, (5′S,7′R,7a′R)-1-(3-fluoropyrazolo[1,5-a]pyrimidin-7-yl)-7′-hydroxy-5′-phenyltetrahydro-3′H-spiro[piperidine-4,2′-pyrrolo[2,1-b] [1,3]oxazol]-3′-one]	< 25
CC1CN(c2cccc3ncnn23)CCC12O[C@@H]1CC[C@@H](c3ccccc3)N1C2=O (stereo partly drawn) [Example 4.244, (4R,5′S,7a′R)-3-methyl-5′-phenyl-1-([1,2,4]triazolo[1,5-a]pyridin-5-yl)tetrahydro-3′H-spiro[piperidine-4,2′-pyrrolo[2,1-b] [1,3]oxazol]-3′-one]	< 25
O=C1N2[C@@H](CC[C@H]2c2ccccc2)OC12CCN(c1ccc(Br)n3ncnc13)CC2 [Example 4.216, (5′S,7a′R)-1-(5-bromo [1,2,4]triazolo[1,5-a]pyridin-8-yl)-5′-phenyltetrahydro-3′H-spiro[piperidine-4,2′-pyrrolo[2,1-b] [1,3]oxazol]-3′-one]	< 25
O=C(c1cc(F)ccc1F)N1CCC2(CC1)O[C@@H]1CC[C@@H](c3ccccc3)N1C2=O [Example 1.11, (5′S,7a′R)-1-(2,5-difluorobenzene-1-carbonyl)-5′-phenyltetrahydro-3′H-spiro[piperidine-4,2′-pyrrolo[2,1-b] [1,3]oxazol]-3′-one]	< 25
CSc1nc(C)cc(N2CCC3(CC2)O[C@@H]2CC[C@@H](c4ccccc4)N2C3=O)n1 [Example 4.36, (5′S,7a′R)-1-[6-methyl-2-(methylsulfanyl)pyrimidin-4-yl]-5′-phenyltetrahydro-3′H-spiro[piperidine-4,2′-pyrrolo[2,1-b] [1,3]oxazol]-3′-one]	37.4
O=C1N2[C@@H](CC[C@H]2c2cnccn2)OC12CCN(c1ccnc3c(F)cnn13)CC2 [Example 4.140, (5′S,7a′R)-1-(3-fluoropyrazolo[1,5-a]pyrimidin-7-yl)-5′-(pyrazin-2-yl)tetrahydro-3′H-spiro[piperidine-4,2′-pyrrolo[2,1-b] [1,3]oxazol]-3′-one]	25.6
O=C(c1ccccc1)N1CCC2(CC1)O[C@@H]1CC[C@@H](c3cc(F)ccc3F)N1C2=O [Example 7.2, (5′S,7a′R)-1-(benzenecarbonyl)-5′-(2,5-difluorophenyl)tetrahydro-3′H-spiro[piperidine-4,2′-pyrrolo[2,1-b][1,3]oxazol]-3′-one]	< 25
NC(=O)c1ccc(N2CCC3(CC2)O[C@@H]2CC[C@@H](c4ccccc4F)N2C3=O)n2ncnc12 [Example 4.151, 5-[(5′S,7a′R)-5′-(2-fluorophenyl)-3′-oxotetrahydro-1H,3′H-spiro[piperidine-4,2′-pyrrolo[2,1-b] [1,3]oxazol]-1-yl][1,2,4]triazolo[1,5-a] pyridine-8-carboxamide]	< 25
O=C1CCc2nc(N3CCC4(CC3)O[C@@H]3CC[C@@H](c5ccccc5)N3C4=O)ccc21 [Example 4.196, (5′S,7a′R)-1-(5-oxo-6,7-dihydro-5H-cyclopenta[b]pyridin-2-yl)-5′-phenyltetrahydro-3′H-spiro[piperidine-4,2′-pyrrolo[2,1-b] [1,3]oxazol]-3′-one]	31.7
O=C(c1cc(F)ccc1F)N1CCC2(O[C@@H]3CC[C@@H](c4ccccc4)N3C2=O)C(F)C1 (stereo partly drawn) [Example 6.111, (5′S,7a′R)-1-(2,5-difluorobenzene-1-carbonyl)-3-fluoro-5′-phenyltetrahydro-3′H-spiro[piperidine-4,2′-pyrrolo[2,1-b][1,3]-oxazol]-3′-one]	< 25
Cc1cc2c(nc1N1CCC3(CC1)O[C@@H]1CC[C@@H](c4ccccc4)N1C3=O)CNC2=O [Example 4.187, (5′S,7a′R)-1-(3-methyl-5-oxo-6,7-dihydro-5H-pyrrolo[3,4-b]pyridin-2-yl)-5′-phenyltetrahydro-3′H-spiro[piperidine-4,2′-pyrrolo[2,1-b] [1,3]oxazol]-3′-one]	357
NC(=O)c1cc(N2CCC3(CC2)O[C@@H]2CC[C@@H](c4cc(F)cc(F)c4)N2C3=O)ncn1 [Example 4.185, 6-[(5′S,7a′R)-5′-(3,5-difluorophenyl)-3′-oxotetrahydro-1H,3′H-spiro[piperidine-4,2′-pyrrolo[2,1-b] [1,3]oxazol]-1-yl]pyrimidine-4-carboxamide]	83
COc1ccc(N2CCC3(CC2)O[C@@H]2CC[C@@H](c4cc(F)cc(F)c4)N2C3=O)n2nccc12 [Example 19.1, (5′S,7a′R)-5′-(3,5-Difluorophenyl)-1-(4-methoxypyrazolo[1,5-a]pyridin-7-yl)tetrahydro-3′H-spiro[piperidine-4,2′-pyrrolo[2,1-b]oxazol]-3′-one, TFA]	< 25
O=C(c1ccoc1)N1CCC2(CC1)O[C@@H]1CC[C@@H](c3ccccc3)N1C2=O [Example 6.145, (5′S,7a′R)-1-(furan-3-carbonyl)-5′-phenyl-tetrahydro-3′H-spiro [piperidine-4,2′-pyrrolo[2,1-b][1,3]oxazol]-3′-one]	< 25
N#Cc1ccc(N2CCC3(O[C@@H]4CC[C@@H](c5ccccc5)N4C3=O)C(F)C2)n2ncnc12 (stereo partly drawn) [Example 4.258, 5-[(5′S,7a′R)-3-fluoro-3′-oxo-5′-phenyltetrahydro-1H,3′H-spiro[piperidine-4,2′-pyrrolo[2,1-b] [1,3]oxazol]-1-yl][1,2,4]triazolo[1,5-a] pyridine-8-carbonitrile]	< 25
O=C1N2[C@H](OC13CCN(c1ccnc4c(F)cnn14)CC3)[C@@H](O)C[C@H]2c1ccccc1 [Example 4.271, (5′S,7′S,7a′R)-1-(3-fluoropyrazolo[1,5-a]pyrimidin-7-yl)-7′-hydroxy-5′-phenyltetrahydro-3′H-spiro[piperidine-4,2′-pyrrolo[2,1-b] [1,3]oxazol]-3′-one]	< 25
COc1cccc(F)c1C(=O)N1CCC2(CC1)O[C@@H]1CC[C@@H](c3cc(F)cc(F)c3)N1C2=O [Example 6.72, (5′S,7a′R)-5′-(3,5-difluorophenyl)-1-(2-fluoro-6-methoxy-benzene-1-carbonyl) tetrahydro-3′H-spiro [piperidine-4,2′-pyrrolo[2,1-b][1,3]-oxazol]-3′-one]	41.3
